Reference: PMC12475274, “Harnessing indole scaffolds to identify small-molecule IRE1α inhibitors modulating XBP1 mRNA splicing” (Nature Communications, 2025)
Several values for one entry are separate records, joined by “and”; a condition that tells them apart may be missing. Identical values can stand only once. Entries after “also recorded” stand apart in the source; their conditions may differ. Like-named read-outs stand apart in the source and are kept apart here.

Tests used:
dephosphorylated IRE1α = target: T1, dephosphorylated IRE1α (Homo sapiens, UniProt O75460); assay: Isothermal titration calorimetry (ITC), incl. competitive ITC; type: binding
T1 construct: Human IRE1α kinase and RNase domain (residues 547–977) was subcloned into pLIB plasmid; His tag (with TEV cleavage site) (N, cleaved yes); made in house; host or cells: Sf9 insect cells, baculovirus (Bac-to-Bac)
T1 sequence (O75460 547-977): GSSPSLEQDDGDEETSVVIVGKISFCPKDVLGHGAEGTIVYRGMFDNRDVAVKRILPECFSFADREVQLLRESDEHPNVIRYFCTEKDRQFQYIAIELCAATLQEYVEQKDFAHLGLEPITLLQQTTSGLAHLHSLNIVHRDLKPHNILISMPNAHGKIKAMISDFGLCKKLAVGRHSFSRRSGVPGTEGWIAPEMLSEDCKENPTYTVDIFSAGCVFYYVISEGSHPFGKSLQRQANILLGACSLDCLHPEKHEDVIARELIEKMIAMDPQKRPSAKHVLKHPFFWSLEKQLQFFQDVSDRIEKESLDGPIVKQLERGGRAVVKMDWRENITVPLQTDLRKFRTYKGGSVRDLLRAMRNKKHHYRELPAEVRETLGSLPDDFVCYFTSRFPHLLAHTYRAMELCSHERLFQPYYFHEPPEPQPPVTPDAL
Procedure: The dephosphorylated IRE1α protein was used directly after purification, ITC experiments were carried out at 25 °C using MicroCal PEAQ-ITC system (Malvern) in buffer 25 mM HEPES pH 7.5, 250 mM NaCl, 1 mM TCEP, 5% glycerol, 1% DMSO. The solution was diluted to a final 1% DMSO in the same buffer as for the protein. Protein and compound solution were degassed before loading to the cell and syringe respectively. Unless otherwise noted, 200 μM of compound was loaded into the syringe and 10 μM of IRE1α protein was loaded into the sample cell. For competitive ITC, the protein was incubated with the indicated compound at 25 °C (final 1% DMSO) before loading to the cell. Instrument settings were: reference power 10 μcal/s, feedback high, stir speed 750 rpm, initial delays 60 s, injection spacing 150 s, injection duration 4 s. All experiments were performed with a single 0.4 μL injection followed by 18 (or 15), 2 μL injections. Data were analyzed using MicroCal PEAQ-ITC analysis software. The one set of sites fitting model is used for the calorimetry data analysis, with cell concentration and syringe concentration as the input parameters. For compound IA01, the N was set to 1 to improve the fit.

[1] = target: T2, phosphorylated IRE1α (p-IRE1α) (Homo sapiens, UniProt O75460); assay: FRET-based IRE1α RNase activity assay, phosphorylated IRE1α; type: biochemical; conditions: for inhibition(%): p-IRE1a
T2 construct: Human IRE1α kinase and RNase domain (residues 547–977) was subcloned into pLIB plasmid; His tag (with TEV cleavage site) (N, cleaved yes); made in house; host or cells: Sf9 insect cells, baculovirus (Bac-to-Bac)
T2 sequence (O75460 547-977): as above
How it was run: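 Sf9-expressed IRE1α kinase-RNase domain (residues 547–977), fully phosphorylated fraction, 4 nM, preincubated with compound 30 min at RT, then 200 nM FAM/BHQ1 XBP1 RNA added in HEPES pH 7.5 buffer. Fluorescence (ex 485/em 535 nm) read kinetically for 1 h at RT; inhibition from linear slopes, IC50 by concentration-response fit.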

IRE1α = target: T3, IRE1α (Homo sapiens, UniProt O75460); assay: Differential scanning fluorimetry (DSF), IRE1α; type: binding; conditions: for IRE1a ∆Tm: DSF, individual measurements; for IRE1 ∆Tm(°C): replicate values
T3 construct: Human IRE1α kinase and RNase domain (residues 547–977) was subcloned into pLIB plasmid; His tag (with TEV cleavage site) (N, cleaved yes); made in house; host or cells: Sf9 insect cells, baculovirus (Bac-to-Bac)
T3 sequence (O75460 547-977): as above
Procedure: The DSF assay was performed in PBS buffer containing 2 mM DTT, in a total reaction volume of 20 µl with indicated compounds (final 1% DMSO) and the final concentration of 1 µM IRE1α protein and 5× SYPRO Orange fluorescent dye (5000× in DMSO, Sigma S5692). The melting curve was measured at a temperature range from 25 °C to 95 °C and in increments of 1 °C for 30 s using a Bio-Rad CFX96 Real-Time PCR detection system with the FRET scan mode. The melting temperature (Tm) was obtained by fitting the melting curve to Boltzmann sigmoidal in GraphPad Prism and the thermal shift (∆Tm) was calculated by using the equation: ∆Tm = Tm(compound) -Tm(DMSO).

[2] = 200 μM compound into 10 μM IRE1α, no competitor
[3] = FRET assay, RNase activity, mean (± SEM), read-out: p-IRE1α IC50
[4] = FRET assay, source data, unit from Fig. 3, read-out: p-IRE1a IC50, individual replicates (n1-n4)
[5] = titrating 200 μM compound into 10 μM IRE1α, no competitor (DMSO), read-out: KD (ITC)
[6] = FRET assay, read-out: p-IRE1α IC50 (RNase activity)
[7] = compound 1.563 μM, Supplementary Fig. 3d/3e
[8] = compound 3.125 μM, Supplementary Fig. 3d/3e
[9] = compound 6.25 μM, Supplementary Fig. 3d/3e
[10] = compound 12.5 μM, Supplementary Fig. 3d/3e
[11] = compound 25 μM, Supplementary Fig. 3d/3e
[12] = compound 50 μM, Supplementary Fig. 3d/3e
[13] = compound 100 μM, Supplementary Fig. 3d/3e

## CCOC(=O)Nc1cccc2c(Oc3ncccc3-c3ccnc(N[C@H]4CCCNC4)n3)c(C)ccc12 [Compound G1749, reference compound]
Dephosphorylated IRE1α; G1749 to IRE1α with 1 mM IA107, ND, not detectable
  KD (competition ITC): did not show a detectable binding
[1]
  effect on p-IRE1α RNase activity in the FRET assay: inhibiting p-IRE1α; also recorded: inhibit the p-IRE1α RNase activity
[1]; 5.55556 μM
  inhibition(%): 93.9541% and 94.7061% and 91.8428% and 92.9515%
[1]; 16.6667 μM
  inhibition(%): 92.2815% and 93.8095% and 92.7972% and 92.696%
[1]; 50 μM
  inhibition(%): 92.1465% and 91.4042% and 91.8332% and 89.3845%

## COc1ccc2c(c1)c(CCC(=O)O)c(C)n2C(=O)c1ccc(Cl)cc1 [IA01]
Dephosphorylated IRE1α; [2]
  -TΔS (ITC): -2.14 kcal/mol
  N(sites) (ITC): 1
  ΔG (ITC): -7.62 kcal/mol
  ΔH (ITC): -5.48 ± 2.28 kcal/mol
IRE1α
  stabilization of IRE1α in DSF: stabilized IRE1α concentration-dependently
IRE1α; compound 25 μM
  IRE1a ∆Tm: 1.17 °C and 1.02 °C
IRE1α; compound 50 μM
  IRE1a ∆Tm: 1.57 °C and 1.89 °C
[1]; FRET assay at 50 μM, mean (± SEM), read-out: p-IRE1α inhibition%
  inhibition at 50 µM: 99.3%
[1]; FRET assay at 50 μM, source data, 50 µM
  p-IRE1a Inhibiton%, individual measurements: 102.461% and 99.7014% and 101.879% and 92.3671% and 96.3072%
[1]; FRET assay at 50 μM, source data, read-out: p-IRE1a Inhibiton%, individual measurements
  inhibition at 50 µM: 103%
[1]; [3]
  IC50: 320 nM
[1]; [4]
  IC50: 544 nM and 136 nM and 264 nM and 325 nM

## COc1ccc2c(c1)c(CCC(=O)O)c(C)n2C(=O)c1ccc2ccccc2c1 [IA34]
Dephosphorylated IRE1α
  binding to IRE1α in ITC: no binding signal
IRE1α
  stabilization of IRE1α in DSF: did not show any detectable changes
[1]; FRET assay, RNase activity, mean (± SEM)
  p-IRE1α IC50: IC₅₀ not reached
[1]; [3]
  IC50: > 20000 nM
[1]; IA34 0.000847 μM, Supplementary Fig. 3b, replicate values
  inhibition(%): 2.43% and -1.86% and 1.39%
[1]; IA34 0.00254 μM, Supplementary Fig. 3b, replicate values
  inhibition(%): -5.52% and -18.14% and 21.30% and 14.33%
[1]; IA34 0.007621 μM, Supplementary Fig. 3b, replicate values
  inhibition(%): 0.79% and -13.95% and -1.17% and 1.14%
[1]; IA34 0.022862 μM, Supplementary Fig. 3b, replicate values
  inhibition(%): 1.11% and -4.73% and 39.51% and 0.29%
[1]; IA34 0.068587 μM, Supplementary Fig. 3b, replicate values
  inhibition(%): -18.24% and -15.02% and -11.07% and -8.20%
[1]; IA34 0.205761 μM, Supplementary Fig. 3b, replicate values
  inhibition(%): -19.34% and -16.85% and 12.47% and -7.35%
[1]; IA34 0.617284 μM, Supplementary Fig. 3b, replicate values
  inhibition(%): 15.53% and 10.67% and -18.52% and -10.41%
[1]; IA34 1.85185 μM, Supplementary Fig. 3b, replicate values
  inhibition(%): -19.37% and -18.05% and -6.66% and -19.44%
[1]; IA34 5.55556 μM, Supplementary Fig. 3b, replicate values
  inhibition(%): 14.49% and 0.73% and 11.46% and -10.03%
[1]; IA34 16.6667 μM, Supplementary Fig. 3b, replicate values
  inhibition(%): 26.07% and 13.29% and -8.49% and -17.54%
[1]; IA34 50 μM, Supplementary Fig. 3b, replicate values
  inhibition(%): -20.79% and 2.08% and 7.61% and 4.39%

## COc1ccc2c(c1)c(CCC(=O)O)c(C)n2C(=O)c1ccccc1 [IA64]
Dephosphorylated IRE1α; [5]
  Kd: 2960 nM
IRE1α
  stabilization of IRE1α in DSF: concentration-dependently stabilized
IRE1α; compound 6.25 μM, Supplementary Fig. 3c
  IRE1 ∆Tm(°C): 1.2 °C and 1.21 °C
IRE1α; compound 12.5 μM, Supplementary Fig. 3c
  IRE1 ∆Tm(°C): 1.94 °C and 2.05 °C
IRE1α; compound 25 μM, Supplementary Fig. 3c
  IRE1 ∆Tm(°C): 2.82 °C and 2.92 °C
IRE1α; compound 50 μM, Supplementary Fig. 3c
  IRE1 ∆Tm(°C): 3.88 °C
[1]; [3]
  IC50: 37.4 nM
[1]; [6]
  IC50: 30 nM
[1]; [4]
  IC50: 61 nM and 17 nM and 34 nM and 26 nM

## Cc1c(CCC(=O)O)c2cc(Br)ccc2n1C(=O)c1ccccc1 [IA107]
Dephosphorylated IRE1α; IA107 to IRE1α with 5 μM G1749, read-out: KD (competitive ITC)
  Kd: 2250 nM
Dephosphorylated IRE1α; IA107 to IRE1α with 50 μM G1749, ND, not detectable
  KD (competitive ITC): did not show detectable binding
Dephosphorylated IRE1α; IA107 to IRE1α with 200 μM G1749, ND, not detectable
  KD (competitive ITC): did not show detectable binding
Dephosphorylated IRE1α; [5]
  Kd: 940 nM
Dephosphorylated IRE1α; titrating 200 μM compound to 20 μM dephosphorylated IRE1α, read-out: KD (ITC)
  Kd: 1410 nM
IRE1α
  stabilization of IRE1α in DSF: concentration-dependently stabilized
IRE1α; compound 25 μM
  IRE1a ∆Tm: 4.2925 °C (2×) and 4.2325 °C and 4.2625 °C
IRE1α; compound 50 μM
  IRE1a ∆Tm: 5.1825 °C and 5.3725 °C and 5.2525 °C and 5.2825 °C
IRE1α; compound 100 μM
  IRE1a ∆Tm: 5.7825 °C and 5.7925 °C (2×) and 5.8625 °C
[1]; [3]
  IC50: 9.31 nM
[1]; [6]
  IC50: 9 nM
[1]; [4]
  IC50: 11.1 nM and 10.2 nM and 6.6 nM

## Cc1c(CCC(=O)O)c2cc(Cl)ccc2n1C(=O)c1ccccc1 [IA141]
Dephosphorylated IRE1α; [5]
  Kd: 1820 nM
IRE1α
  stabilization of IRE1α in DSF: concentration-dependently stabilized
IRE1α; [7]
  IRE1 ∆Tm(°C): 0.63 °C and 0.81 °C and 0.65 °C and 0.58 °C
IRE1α; [8]
  IRE1 ∆Tm(°C): 1.12 °C and 1.18 °C and 0.97 °C and 1.08 °C
IRE1α; [9]
  IRE1 ∆Tm(°C): 1.79 °C and 1.73 °C and 1.77 °C and 1.66 °C
IRE1α; [10]
  IRE1 ∆Tm(°C): 2.82 °C and 2.70 °C and 2.75 °C and 2.68 °C
IRE1α; [11]
  IRE1 ∆Tm(°C): 3.71 °C and 3.59 °C and 3.83 °C and 3.70 °C
IRE1α; [12]
  IRE1 ∆Tm(°C): 4.64 °C and 4.50 °C and 4.51 °C and 4.69 °C
IRE1α; [13]
  IRE1 ∆Tm(°C): 5.27 °C (2×) and 5.25 °C and 5.36 °C
[1]; [3]
  IC50: 82 nM and 80 nM
[1]; [4]
  IC50: 98.9 nM and 83.6 nM and 62.4 nM

## Cc1ccc2c(c1)c(CCC(=O)O)c(C)n2C(=O)c1ccccc1 [IA147]
Dephosphorylated IRE1α; [5]
  Kd: 2990 nM
IRE1α
  stabilization of IRE1α in DSF: concentration-dependently stabilized
IRE1α; [7]
  IRE1 ∆Tm(°C): 0.4825 °C (2×) and 0.3925 °C and 0.4425 °C
IRE1α; [8]
  IRE1 ∆Tm(°C): 0.6325 °C and 0.6525 °C and 0.6425 °C and 0.5925 °C
IRE1α; [9]
  IRE1 ∆Tm(°C): 1.0225 °C and 1.5025 °C and 1.2125 °C and 1.1425 °C
IRE1α; [10]
  IRE1 ∆Tm(°C): 1.7325 °C and 2.0725 °C and 1.7925 °C (2×)
IRE1α; [11]
  IRE1 ∆Tm(°C): 2.7025 °C (2×) and 2.5925 °C and 2.5225 °C
IRE1α; [12]
  IRE1 ∆Tm(°C): 3.6525 °C and 3.6025 °C and 3.6325 °C and 3.5325 °C
IRE1α; [13]
  IRE1 ∆Tm(°C): 4.5725 °C and 4.5025 °C and 4.4925 °C and 4.4625 °C
[1]; [3]
  IC50: 133 nM and 130 nM
[1]; [4]
  IC50: 154 nM and 127 nM and 116 nM

## CCOC(=O)CCc1c(C)n(C(=O)c2ccccc2)c2ccc(Br)cc12 [IAPD1]
[1]
  effect on p-IRE1α RNase activity in the FRET assay: did not inhibit the RNase activity
[1]; 0.00254 μM
  inhibition(%): -4.888% and 2.526% and -4.055% and 4.733%
[1]; 16.6667 μM
  inhibition(%): -1.806% and 4.317% and -3.888% and 0.777%
[1]; 50 μM
  inhibition(%): 0.943% and 1.151% and 1.193% and 2.068%

## Cc1ccc2c(NS(=O)(=O)c3ccccc3Cl)cccc2c1Oc1ncccc1-c1ccnc(N[C@H]2CCCNC2)n1 [KIRA8]
[1]
  effect on p-IRE1α RNase activity in the FRET assay: inhibit the p-IRE1α RNase activity
[1]; [3]
  IC50: 3 nM
